Measured values taken from ChEMBL document CHEMBL1125459, “Synthesis and biological activity of 8a-phenyldecahydroquinolines as probes of PCP's binding conformation. A new PCP-like compound with increased in vivo potency” (J Med Chem, 1992).

Tests used:
[1] = Compound was evaluated for its affinity towards NMDA receptor in male Swiss Webster mice.
[2] = Compound was evaluated for its affinity towards N-methyl-D-aspartate glutamate receptor in male Swiss Webster mice.
Mus musculus = assay: Compound was evaluated in vivo for effective dose by subcutaneous administration in mice using cGMP assay; format: functional; settings: sc

Row | SMILES | IC50 [1] | IC50 [2] | ED50 (Mus musculus)
1 | c1ccc([C@@]23CCCC[C@@H]2CCCN3)cc1 | 0.159 µM | – | –
2 | c1ccc([C@]23CCCC[C@H]2CCCN3)cc1 | – | 0.467 µM | –
3 | c1ccc([C@@]23CCCC[C@H]2CCCN3)cc1 | – | 0.0663 µM | 0.16 mg/kg
4 | c1ccc([C@]23CCCC[C@@H]2CCCN3)cc1 | 0.0946 µM | – | –
5 | C[C@]12N[C@H](Cc3ccccc31)c1ccccc12 [DIZOCILPINE] | – | 0.0014 µM | 0.3 mg/kg
6 | c1ccc(C2(N3CCCCC3)CCCCC2)cc1 [PHENCYCLIDINE] | – | 0.035 µM | –
